How the values were obtained:
trypsin [1] = target: T1, trypsin (Sus scrofa, UniProt P00761); experiment: Trypsin activity assay (TAME hydrolysis, absorption at 247 nm); assay type: biochemical; conditions: trypsin 20 nM, TAME 1 mM
T1 construct: purchased Wako; host or cells: porcine pancreas (natural source)
Excerpt: Trypsin hydrolyses peptide linkages at the carboxyl side of lysine and arginine residues.[29] As already described in Fig. 2a, this protease activity is inhibited by BA.[10] Considering the exceptionally high affinity of Glue29–BA for trypsin, we expected that this BA-appended molecular glue might be the best inhibitor among those listed in Fig. 1. However, as observed by dynamic light scattering (DLS; Fig. S12 ^†), trypsin/Glue29–BA, in contrast with other complexes such as trypsin/Glue10–BA and trypsin/Glue10–Ph, tends to form large aggregates (>200 nm), most likely due to the formation of physical crosslinks between its excessively long glue moiety and trypsin. […] We presume that the poor conformational flexibility of the in-chain Gu^+ units in the glue moiety hinders the ability of the conjugated BA terminus to properly block the substrate-binding site of trypsin. […]
To a Tris–HCl buffer (50 mM Tris–HCl, 10 mM CaCl2, pH 8.0) solution of trypsin (20 nM) was added a Tris–HCl buffer solution of TEG–BA, and the mixture was incubated at 25 °C for 1 min. […] The trypsin activity was determined using pseudo-first order reaction kinetics and normalized to that of untreated trypsin. The trypsin activities in the presence of Gluen–BA, ^mGluen–BA and Gluen–Ph were likewise evaluated.

trypsin [2] = target: T1, trypsin; experiment: Circular dichroism (CD) spectral titration of trypsin, Hill equation fit; assay type: binding; conditions: trypsin 5 μM, CD at 237 nm, 25 °C, Tris–HCl buffer (50 mM Tris–HCl, 10 mM CaCl2, pH 8.0), read-out: association constant (K assoc) with trypsin (converted)
Excerpt: We first investigated the effect of conjugation of molecular glues to BA on the binding affinity for trypsin. Trypsin is known to alter its conformation upon interaction with metal ions,[24] polymers[25] and proteins,[26] resulting in circular dichroism (CD) spectral changes. Upon mixing with Glue10–BA, trypsin also changed its CD spectrum. […] According to the reported method,[27],[28] we estimated the association constant (K assoc) of Glue10–BA with trypsin to be 5.5 × 10^5 M^–1 by fitting the fractions of bound trypsin (Fig. 3, red) to the Hill equation.[27],[28] […]
Fig. 3 Circular dichroism (CD) spectral titration profiles of trypsin (5 μM) at 237 nm with molecular glues Glue29–BA (brown; 0–2.5 μM), Glue10–BA (red; 0–7 μM), Glue10–Ph (green; 0–12 μM) and ^mGlue27–BA (purple; 0–50 μM), together with reference TEG–BA (blue; 0–200 μM), at 25 °C in Tris–HCl buffer (50 mM Tris–HCl, 10 mM CaCl2, pH 8.0). The fractions of bound trypsin were calculated from (I – I 0)/(I sat – I 0), where I 0, I and I sat represent the CD intensities before titration, observed with titrants and at the saturation point, respectively. […]
The association constants (K assoc) were calculated based on the Hill equation by plotting the fractions of bound trypsin versus the concentrations of a titrant. […]

T1 sequence (P00761 9-231): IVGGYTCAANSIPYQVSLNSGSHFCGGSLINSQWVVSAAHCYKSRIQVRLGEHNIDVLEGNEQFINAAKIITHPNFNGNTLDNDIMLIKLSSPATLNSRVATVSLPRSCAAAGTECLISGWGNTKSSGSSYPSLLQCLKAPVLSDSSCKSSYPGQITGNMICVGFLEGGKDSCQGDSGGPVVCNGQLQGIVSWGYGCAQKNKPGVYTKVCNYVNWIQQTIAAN

Q: What does the source list for `[N-]=[N+]=NCCOCCOCCOCCNC(=O)CCCC(=O)Nc1ccc(C(=N)N)cc1` [TEG–BA]?
A: inhibition of TAME hydrolysis by trypsin at 10 μM (trypsin [1]; 10 μM compound): did not exhibit detectable inhibition; IC50 (trypsin [1]; 25 °C, Tris–HCl buffer pH 8.0, read-out: half-maximal inhibitory concentration (IC50)): 79 µM; Kd (trypsin [2]): 62.5 µM

Reference: paper PMC5489047, “Molecular glues for manipulating enzymes: trypsin inhibition by benzamidine-conjugated molecular glues” (Chemical Science, 2015)
